Test results taken from patent US7169574B2, “Fluorescence detection of proteases or peptidases” (Institut National de la Sante et de la Recherche Medicale …, priority 2000, dated 2007).
Several values for one entry are separate records, joined by “and”; a condition that tells them apart may be missing. Identical values can stand only once. Numbered stars: 1 amine (or outer) side, 2 acyl side, 3 side chain; on linkers, the order of the positions; unused ones are H or OH. Square brackets hold non-standard residues; d marks the D form. Primed or numbered codes have the meaning given here. Ends that are not written are not given here. PyA″ = pyrenylalanine, O=C([C@H](Cc1ccc2ccc3cccc4ccc1c2c34)N[*:1])[*:2]; Phe(4-NO2) = N[C@@H](Cc1ccc([N+](=O)[O-])cc1)C(=O)O

How the values were obtained:
[1] = Stability of the fluorescence of the metabolites formed by ECE; assay type: physicochemical
Source text: The measurement of this intensity, related to a standard curve established with mixtures of the substrate and of the fluorescent metabolite formed, therefore makes it possible either to evaluate the inhibitory capacity as percentage inhibition at a set given concentration of the product P, or to precisely determine its IC50 and then its KI using the Km of the substrate and several concentrations of the product P. The extreme sensitivity of the assay makes it possible to operate in very small volumes (100 μl) with concentrations of the order of 20 μM of the substrate 1s (that is to say 2 nmole corresponding to 4.43 μg per assay) or 5 μM of the substrate 2s. The test can therefore be very easily used in 96 wells plates or more, making it possible to automate it with automatic determination of the KI values when the reading fluorimeter is connected to a computer having suitable commercial software.

[2] = biological target: T1, endothelin-converting enzyme (ECE) (Homo sapiens, UniProt P42892); experiment: Fluorimetric ECE activity assay with fluorescent peptide substrates (96-well plates); assay type: biochemical; conditions: 50 mM Tris-maleate buffer, pH 6.5; calculated using the ENZFITTER program; read-out: Km (affinity constant of the enzyme for a substrate)
T1 construct: made in house; host or cells: Cos-1 cells or CHO cells
T1 sequence (P42892 1-754 isoform P42892-3): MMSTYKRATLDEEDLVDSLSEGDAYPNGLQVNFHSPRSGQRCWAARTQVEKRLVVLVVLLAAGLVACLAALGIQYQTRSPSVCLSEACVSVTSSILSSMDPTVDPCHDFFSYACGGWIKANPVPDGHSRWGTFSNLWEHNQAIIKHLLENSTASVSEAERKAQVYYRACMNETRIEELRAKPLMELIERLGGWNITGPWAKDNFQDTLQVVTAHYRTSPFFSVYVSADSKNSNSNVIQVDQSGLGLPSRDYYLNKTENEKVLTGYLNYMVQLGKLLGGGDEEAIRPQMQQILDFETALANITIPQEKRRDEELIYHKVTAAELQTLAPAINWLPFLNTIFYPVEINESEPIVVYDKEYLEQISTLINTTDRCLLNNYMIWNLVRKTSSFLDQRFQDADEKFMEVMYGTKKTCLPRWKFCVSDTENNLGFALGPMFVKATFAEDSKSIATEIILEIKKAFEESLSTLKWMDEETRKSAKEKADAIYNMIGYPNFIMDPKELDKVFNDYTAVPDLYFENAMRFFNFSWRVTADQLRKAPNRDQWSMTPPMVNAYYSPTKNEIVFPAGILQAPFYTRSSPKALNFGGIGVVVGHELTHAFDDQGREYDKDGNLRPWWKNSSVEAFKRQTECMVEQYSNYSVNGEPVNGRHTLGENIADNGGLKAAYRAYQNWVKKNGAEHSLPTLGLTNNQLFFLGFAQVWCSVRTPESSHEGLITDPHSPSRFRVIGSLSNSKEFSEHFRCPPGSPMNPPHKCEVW
Protocol: Various preparations containing ECE can be used, such as, for example, recombinant human ECE-1c expressed in Cos-1 cells (Shimada et al., J. Biol. Chem. (1994) 269, 18275–18278) or CHO cells (Xu et al. Cell (1994) 78, 473–485).
In all cases, the presence of the enzyme is tested by Western blotting using an antibody and its concentration is evaluated by comparison with the purified enzyme.
The ECE activity is determined in 96-well plates, generally under the following conditions:
100 μl of 50 mM Tris-maleate buffer, pH 6.5, 20 μM or 5 μM of fluorescent peptide 1s or 2s and 10 μl of a solution of ECE diluted as a function of its purity and such that the cleavage of the fluorescent substrate remains less than 5%. […] The reaction is stopped in various ways, for example heating to 90° C., abrupt cooling to 4° C., adding an organic solvent such as dioxane to 20% of the final volume, and then the reading is performed using a fluorimeter (λex=340 nm; λem=400 nm) optionally coupled to the automated analysis system. The use of a network fluorimeter considerably further increases the sensitivity of the assay by reading the fluorescence at 377 nm. […]
The KI values for the inhibitors can be determined automatically using the degradation percentages at various concentrations and comparison with a standard range. […]

ECE [3] = biological target: T2, ECE (Homo sapiens, UniProt P42892); experiment: HPLC analysis of products formed on incubation with ECE; assay type: biochemical; conditions: single cleavage at the PyA-pNF peptide bond
T2 construct: made in house; host or cells: Cos-1 cells or CHO cells
T2 sequence (P42892 1-754 isoform P42892-3): T1 sequence (P42892 1-754 isoform P42892-3)
Protocol: With regard to the products formed, the analysis thereof was carried out, in order to verify the substrate selectivity, by HPLC on a nucleosil C18 column, 7 μm/300 Å (4.6×70 mm), using a buffer B (0.038% of TFA in CH3CN/H2O, 9/1 by vol.) and a gradient of 40–47% of buffer B in 10 minutes (flow rate 1 ml/min).

ECE [4] = biological target: T2, ECE; experiment: ECE inhibition test, fluorescence reading on 96-well microplate (Examples 3 and 4); assay type: biochemical; conditions: for fluorescence intensity measured for each well: excitation 340 nm, emission 400 nm, gain 85, low value = strong inhibition, blank 67/68, control 1081/1094
Protocol: 100 μl of 50 mM Tris-maleate buffer, pH 6.5, 20 μM or 5 μM of fluorescent peptide 1s or 2s and 10 μl of a solution of ECE diluted as a function of its purity and such that the cleavage of the fluorescent substrate remains less than 5%. […] The reaction is stopped in various ways, for example heating to 90° C., abrupt cooling to 4° C., adding an organic solvent such as dioxane to 20% of the final volume, and then the reading is performed using a fluorimeter (λex=340 nm; λem=400 nm) optionally coupled to the automated analysis system. […] The controls are performed in the presence of all the reagents but without ECE or with ECE inactivated beforehand by heating at 90° C. for 5 minutes.
The inhibitory behavior of several compounds was assessed by reproducing the protocol described in Example 2.
The specific conditions selected for the assays appear below:
Preincubation is carried out for 10 minutes at 37° C. The ECE substrate is then added at an amount of 10 μM. The entire mixture is incubated for between 20 minutes and 1 hour at 37C and the reaction is then stopped either by cooling or by adding dioxane (20 μl).
The reading on cytofluor is performed at 4° C. with the following specificities: excitation 340 nm, emission 400 nm and with a gain of 85.
The assays are performed on a 96-well microplate.
The compounds were tested at two concentrations.

Molecule	fluorescence of the metabolite over time [1]	fluorescence intensity measured for each well (ECE [4]; compound at 5 × 10^−6 M)	fluorescence intensity measured for each well (ECE [4]; compound at 10^−6 M)	also measured
Ac-Arg-Pro-Lys-Gln-Glu-PyA [peptide 2m]	not modified over several hours			
Ac-Ile-Ile-PyA (Ac-Ile-Ile-[PyA″]) [peptide 1m, fluorescent metabolite of 1s formed by ECE]	not modified over several hours			
Ac-Ile-Ile-PyA-pNF-Asn-Thr-Pro-Glu-His-Val-Val-Pro-Tyr-Gly-Leu-Gly-Ser-COOH (Ac-II[PyA″][Phe(4-NO2)]NTPEHVVPYGLGS-OH; SMILES CC[C@H](C)[C@H](NC(C)=O)C(=O)N[C@H](C(=O)N[C@@H](Cc1ccc2ccc3cccc4ccc1c2c34)C(=O)N[C@@H](Cc1ccc([N+](=O)[O-])cc1)C(=O)N[C@@H](CC(N)=O)C(=O)N[C@H](C(=O)N1CCC[C@H]1C(=O)N[C@@H](CCC(=O)O)C(=O)N[C@@H](Cc1c[nH]cn1)C(=O)N[C@H](C(=O)N[C@H](C(=O)N1CCC[C@H]1C(=O)N[C@@H](Cc1ccc(O)cc1)C(=O)NCC(=O)N[C@@H](CC(C)C)C(=O)NCC(=O)N[C@@H](CO)C(=O)O)C(C)C)C(C)C)[C@@H](C)O)[C@@H](C)CC) [peptide 1s, fluorogenic ECE substrate]				Km [2]: 22.1 ± 0.9 µM; metabolites produced when incubated with ECE (ECE [3]): only two metabolites
O=C(O)CC(=O)NC(CS)Cc1ccccc1 (centres unmarked) [R, retrothiorphan]		1043 and 1077	1124 and 1106	
O=C(O)CNC(=O)C(CS)Cc1ccccc1 (centres unmarked) [T, thiorphan]		1109 and 1121	1124 and 1127	
C[C@H](CS)C(=O)N1CCC[C@H]1C(=O)O [C, captopril]		1128 and 1121	1086 and 1089	
Ac-Ser-Gly-PyA-Lys-Ala-Phe-Ala-pNF-Gly-Lys NH2 (Ac-SG[PyA″]KAFA[Phe(4-NO2)]GK-NH2; SMILES CC(=O)N[C@@H](CO)C(=O)NCC(=O)N[C@@H](Cc1ccc2ccc3cccc4ccc1c2c34)C(=O)N[C@@H](CCCCN)C(=O)N[C@@H](C)C(=O)N[C@@H](Cc1ccccc1)C(=O)N[C@@H](C)C(=O)N[C@@H](Cc1ccc([N+](=O)[O-])cc1)C(=O)NCC(=O)N[C@@H](CCCCN)C(N)=O) [peptide 3s, fluorogenic ECE substrate]				metabolites produced when incubated with ECE (ECE [3]): only two metabolites
Ac-Ser-Gly-PyA-Lys-Ala (Ac-SG[PyA″]KA) [peptide 3m, fluorescent metabolite of 3s formed by ECE]	not modified over several hours			
CC(C)C[C@H](NP(=O)(O)O[C@@H]1O[C@@H](C)[C@H](O)[C@@H](O)[C@H]1O)C(=O)N[C@@H](Cc1c[nH]c2ccccc12)C(=O)O [P, phosphoramidon]		140 and 133	455 and 459	inhibitory behavior on ECE (ECE [4]; Table II, 10^−6 M and 5 × 10^−6 M): entirely verified
NCCCC[C@H](N[C@@H](CCc1ccccc1)C(=O)O)C(=O)N1CCC[C@H]1C(=O)O [L, lysinopril]		1095 and 1119	1117 and 1093	
